This assay deals with P388 leukemia ip, CD2F1 mice, survival T/C. The experiment in a line: NCI In Vivo Anticancer Drug Screen. Data for tumor model P388 Leukemia (intraperitoneal) in CD2F1 (CDF1) mice. The following applies: endpoint: median survival time, higher = longer survival. In a few lines: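 Mice carrying the transplanted tumor received test compound or vehicle. Survival was recorded in each group, and the value is the treated-group measurement divided by that of the vehicle-treated control group.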

[1] abbreviates: dose: 50.0 mg/kg/injection, schedule: Q01DX009 (ip), vehicle: Klucel (hydroxypropylcellulose) (HPC).
[2] abbreviates: dose: 100.0 mg/kg/injection, schedule: Q01DX009 (ip), vehicle: Klucel (hydroxypropylcellulose) (HPC).
[3] abbreviates: dose: 200.0 mg/kg/injection, schedule: Q01DX009 (ip), vehicle: Klucel (hydroxypropylcellulose) (HPC).
Setting [4] is: dose: 50.0 mg/kg/injection, schedule: Q01DX005 (ip), vehicle: saline with Tween-80.
[5] abbreviates: dose: 100.0 mg/kg/injection, schedule: Q01DX005 (ip), vehicle: saline with Tween-80.
[6] abbreviates: dose: 200.0 mg/kg/injection, schedule: Q01DX005 (ip), vehicle: saline with Tween-80.
Where [7] appears, read: dose: 60.0 mg/kg/injection, schedule: Q01DX005 (ip), vehicle: Klucel (hydroxypropylcellulose) (HPC).

Values joined by “and” are separate entries in the source; they are usually repeats but may differ in a detail not shown here. Equal values may be shown once. Toxic doses and inconclusive results are not listed.

Turning to `O=c1oc(-c2ccccc2)nnc1-c1ccccc1`, the T/C is, setting by setting: under setting [1], 100 % of control; under setting [2], 101 % of control; under setting [3], 107 % of control.

In the case of `CCOC(=O)Cn1c(=S)sc2ccccc21`, the T/C (dose: 25.0 mg/kg/injection, schedule: Q01DX009 (ip), vehicle: saline with Tween-80) was 91 % of control; the T/C (dose: 50.0 mg/kg/injection, schedule: Q01DX009 (ip), vehicle: saline with Tween-80) was 89 % of control; the T/C (dose: 100.0 mg/kg/injection, schedule: Q01DX009 (ip), vehicle: saline with Tween-80) is 99 % of control; the T/C (dose: 200.0 mg/kg/injection, schedule: Q01DX009 (ip), vehicle: saline with Tween-80) is 91 % of control.

Regarding `C/C(=C\CCCC(/C=C/C=C/CCCCOCc1ccccc1)O[Si](C)(C)C(C)(C)C)CO` (stereo unspecified), the T/C was 102 % of control under setting [4], 101 % of control under setting [5] and 99 % of control under setting [6].

For the compound `CC(=O)Nc1ccc(S(=O)(=O)OC(C)C)cc1`, the T/C (dose: 100.0 mg/kg/injection, schedule: Q04DX003 (ip), vehicle: saline) is 105 % of control; the T/C (dose: 200.0 mg/kg/injection, schedule: Q04DX003 (ip), vehicle: saline) was 113 % of control; the T/C (dose: 400.0 mg/kg/injection, schedule: Q04DX003 (ip), vehicle: saline) is 118 % of control.

For `Cc1ccc(Nc2ncnc3c2c(=O)n(C)c(=O)n3C)cc1C`, the T/C was 100 % of control (dose: 12.5 mg/kg/injection, schedule: Q01DX005 (ip), vehicle: saline with Tween-80); 100 % of control (dose: 25.0 mg/kg/injection, schedule: Q01DX005 (ip), vehicle: saline with Tween-80); 86 % of control and 91 % of control under setting [4]; 88 % of control under setting [5]; 96 % of control under setting [6].

`COc1ccc2c(c1)CSCC2=O`: the T/C was 98 % of control under setting [1], 98 % of control under setting [2] and 100 % of control under setting [3].

`C=C(C)C(=O)NC(N)=NC#N`: the T/C under setting [7] is 122 % of control.

Take `Cc1ccnc(NS(=O)(=O)c2ccc(NC(=O)Nc3ccc(Cl)c(C(F)(F)F)c3)cc2)n1`: the T/C (dose: 50.0 mg/kg/injection, schedule: Q01DX005 (ip), vehicle: Klucel (hydroxypropylcellulose) (HPC)) is 99 % of control; the T/C (dose: 100.0 mg/kg/injection, schedule: Q01DX005 (ip), vehicle: Klucel (hydroxypropylcellulose) (HPC)) was 104 % of control; the T/C (dose: 200.0 mg/kg/injection, schedule: Q01DX005 (ip), vehicle: Klucel (hydroxypropylcellulose) (HPC)) is 96 % of control.

Regarding `O=c1n(CC2CO2)c(=O)n(CC2CO2)c(=O)n1CC1CO1` (stereo unspecified), the T/C is 203 % of control and 172 % of control (dose: 6.25 mg/kg/injection, schedule: Q01DX009 (ip), vehicle: suspension in saline); 165 % of control and 186 % of control (dose: 12.5 mg/kg/injection, schedule: Q01DX009 (ip), vehicle: saline); 197 % of control and 216 % of control (dose: 12.5 mg/kg/injection, schedule: Q01DX009 (ip), vehicle: suspension in saline); 200 % of control (dose: 15.0 mg/kg/injection, schedule: Q01DX005 (ip), vehicle: saline with Tween-80); 161 % of control (dose: 15.0 mg/kg/injection, schedule: Q01DX005 (ip), vehicle: saline); 313 % of control (dose: 20.0 mg/kg/injection, schedule: Q01DX009 (ip), vehicle: saline). Also, the T/C reads like this: (dose: 20.0 mg/kg/injection, schedule: Q01DX009 (sc), vehicle: saline) 172 % of control and 220 % of control; (dose: 25.0 mg/kg/injection, schedule: Q01DX009 (ip), vehicle: saline) 167 % of control and 205 % of control; (dose: 25.0 mg/kg/injection, schedule: Q01DX009 (ip), vehicle: suspension in saline) 226 % of control and 281 % of control; (dose: 25.0 mg/kg/injection, schedule: Q01DX009 (sc), vehicle: saline) 157 % of control and 265 % of control; (dose: 30.0 mg/kg/injection, schedule: Q01DX005 (ip), vehicle: saline) 192 % of control; (dose: 30.0 mg/kg/injection, schedule: Q01DX009 (ip), vehicle: saline) 272 % of control and 290 % of control and 316 % of control. Besides, the T/C is, setting by setting: (dose: 30.0 mg/kg/injection, schedule: Q01DX009 (sc), vehicle: saline) 161 % of control and 247 % of control; (dose: 40.0 mg/kg/injection, schedule: Q01DX009 (sc), vehicle: saline) 277 % of control; (dose: 40.0 mg/kg/injection, schedule: Q04DX003 (ip), vehicle: saline) 184 % of control and 188 % of control and 218 % of control; (dose: 50.0 mg/kg/injection, schedule: Q01DX009 (ip), vehicle: saline) 200 % of control [middle of 5 runs]; (dose: 50.0 mg/kg/injection, schedule: Q01DX009 (ip), vehicle: suspension in saline) 100 % of control; (dose: 50.0 mg/kg/injection, schedule: Q04DX003 (ip), vehicle: saline) 206 % of control and 217 % of control and 290 % of control. The T/C runs as follows: (dose: 60.0 mg/kg/injection, schedule: Q01DX001 (ip), vehicle: other) 262 % of control and 271 % of control; (dose: 60.0 mg/kg/injection, schedule: Q01DX001 (ip), vehicle: saline) 271 % of control; (dose: 60.0 mg/kg/injection, schedule: Q01DX001 (ip), vehicle: water) 260 % of control; (dose: 60.0 mg/kg/injection, schedule: Q04DX003 (ip), vehicle: saline) 233 % of control and 245 % of control and 300 % of control; (dose: 70.0 mg/kg/injection, schedule: Q01DX001 (ip), vehicle: other) 231 % of control and 281 % of control; (dose: 70.0 mg/kg/injection, schedule: Q01DX001 (ip), vehicle: saline) 274 % of control. For the same compound, the T/C is 184 % of control (dose: 70.0 mg/kg/injection, schedule: Q01DX001 (ip), vehicle: water); 291 % of control and 349 % of control (dose: 80.0 mg/kg/injection, schedule: Q01DX001 (ip), vehicle: other); 291 % of control (dose: 80.0 mg/kg/injection, schedule: Q01DX001 (ip), vehicle: saline); 223 % of control (dose: 80.0 mg/kg/injection, schedule: Q01DX001 (ip), vehicle: water); 420 % of control (dose: 90.0 mg/kg/injection, schedule: Q01DX001 (ip), vehicle: saline); 210 % of control (dose: 100.0 mg/kg/injection, schedule: Q01DX001 (ip), vehicle: saline). In addition, the T/C by setting is: (dose: 100.0 mg/kg/injection, schedule: Q01DX009 (ip), vehicle: saline) 285 % of control and 156 % of control and 228 % of control; (dose: 200.0 mg/kg/injection, schedule: Q01DX009 (ip), vehicle: saline) 107 % of control.

Take `CC(=O)c1nn(-c2ccccc2)c(=O)cc1C`: the T/C is 100 % of control under setting [4], 98 % of control under setting [5] and 100 % of control under setting [6].

Turning to `O=C1NC(=O)C(C2CC2)(C2CC2)N1`, the T/C was 103 % of control under setting [4], 101 % of control under setting [5] and 101 % of control under setting [6].

As to `Nc1ncnc2nc(N=Nc3c(O)ccc4ccccc34)[nH]c12`, the T/C was 104 % of control under setting [4] and 93 % of control under setting [5].

For `C/C(=N\N=C(\N)N1CCOCC1)c1ccc2c(c1)Cc1c(/C(C)=N/N=C(\N)N3CCOCC3)cccc1-2`, the T/C by setting is: (dose: 12.5 mg/kg/injection, schedule: Q04DX002 (ip), vehicle: saline with Tween-80) 102 % of control; (dose: 25.0 mg/kg/injection, schedule: Q04DX002 (ip), vehicle: saline with Tween-80) 97 % of control; (dose: 50.0 mg/kg/injection, schedule: Q04DX002 (ip), vehicle: saline with Tween-80) 103 % of control.

As for `Cc1ccc(NC(=O)Oc2ccc([N+](=O)[O-])cc2)cc1S(=O)(=O)F`, the T/C (dose: 60.0 mg/kg/injection, schedule: Q01DX005 (ip), vehicle: saline with Tween-80) was 113 % of control; the T/C (dose: 120.0 mg/kg/injection, schedule: Q01DX005 (ip), vehicle: saline with Tween-80) was 104 % of control; the T/C (dose: 240.0 mg/kg/injection, schedule: Q01DX005 (ip), vehicle: saline with Tween-80) was 95 % of control.

For `CC(=O)OC1CC(n2cc(C)c(=O)[nH]c2=O)OC1COP(=O)(N1CC1(C)C)N1CC1(C)C` (stereo unspecified), the T/C reads like this: (dose: 25.0 mg/kg/injection, schedule: Q04DX003 (ip), vehicle: saline with Tween-80) 110 % of control; (dose: 200.0 mg/kg/injection, schedule: Q04DX003 (ip), vehicle: saline with Tween-80) 159 % of control.

In the case of `c1ccc2c(c1)CCc1cc(CN3CCOCC3)ccc1N2`, the T/C by setting is: under setting [7], 111 % of control; (dose: 120.0 mg/kg/injection, schedule: Q01DX005 (ip), vehicle: Klucel (hydroxypropylcellulose) (HPC)) 108 % of control; (dose: 240.0 mg/kg/injection, schedule: Q01DX005 (ip), vehicle: Klucel (hydroxypropylcellulose) (HPC)) 105 % of control.

These data come from PubChem BioAssay AID330 (DTP/NCI, 2004).
